Results on 3 compounds are retold here after ChEMBL document CHEMBL3046959, “Influence of Absolute Configuration of Indanofan on Herbicidal Activity” (2001).

The structures appear in SMILES notation. Activity calls are given as the source filed them. No cut-off for these calls is given here.

The experiment has as its system Echinochloa crus-galli. In words: Herbicidal activity against 2.5 leaf stage of Echinochloa crus-galli (barnyard grass) after 2 weeks under greenhouse condition by pot test. The class given is functional.
As to `CCC1(CC2(c3cccc(Cl)c3)CO2)C(=O)c2ccccc2C1=O` (racemic), the ED90 result was “inactive”.
As for `CCC1(CC2(c3cccc(Cl)c3)CO2)C(=O)c2ccccc2C1=O` (single isomer, unassigned; (-)) [(RS)-INDANOFAN], the figure is 0.0524 KgAi/ha; as for `CCC1(CC2(c3cccc(Cl)c3)CO2)C(=O)c2ccccc2C1=O` (single isomer, unassigned; (+)) [(RS)-INDANOFAN], 0.0254 KgAi/ha.
